Where a SMILES comes first, the peptide text is derived from it. Bridges are numbered along the chain shown (N, C = ends).
Columns and labels:
[1] = tested on: KV1.1–KV1.6, KV2.1, KV3.1, KV4.2, KV4.3, hERG and Shaker IR; test: Electrophysiological screening on 12 cloned KV channel isoforms in X. laevis oocytes; format: cell-based, rat, human, insect
Procedure: The pharmacological profile of BcsTx-1 and -2 were determined on a wide range of twelve KV channels (rKV1.1, rKV1.2, hKV1.3, rKV1.4, rKV1.5, rKV1.6, rKV2.1, rKV3.1, rKV4.2, rKV4.3, hERG and the insect channel Shaker IR; r: rat and h: human). Channels were expressed in X. laevis oocytes, and their currents were recorded by using two-electrode voltage-clamp technique. BcsTx1 (0.5 µM) inhibited rKv1.1, rKv1.2, rKv1.3, rKv1.6 and Shaker IR channels with 44% ± 2%, 100%, 100%, 88% ± 3% and 64% ± 4%, respectively (Figure 6). […] Type 1 toxins, such as BgK and ShK, have been extensively characterized. […] Some of the other type 1 toxins were indirectly assayed by competitive inhibition of the binding of ^125I-dendrotoxins, allowing the conclusion that they will show activity on KV1.1, KV1.2 and/or KV1.6, since dendrotoxins only block the current of these KV channels. […] Thus, it is worth mentioning that our work represents the first electrophysiological characterization of type 1 sea anemone toxin activity on cloned Shaker IR insect channel.
(§1) Stage V–VI of X. laevis oocytes were harvested by partial ovariectomy under anesthesia (3-aminobenzoic acid ethyl ester methanesulfonate salt, 0.5 g/L from Sigma-Aldrich Co., Saint Louis, MO, USA). The oocytes were defolliculated for 2 h by treatment with 2 mg/mL collagenase (Sigma-Aldrich Co., Saint Louis, MO, USA) in Ca^2+ free ND96 solution (in mM: 96 NaCl; 2 KCl; 1 MgCl2; 5 HEPES adjusted pH 7.4). For the expression of KV channels (KV1.1–KV1.6, KV2.1, KV3.1, KV4.2, KV4.3, hERG and the insect channel Shaker IR), the linearized plasmids were transcribed using the T7 or SP6 mMessage-mMachine transcription kit (Ambion, Austin, TX, USA). Oocytes were injected with 50 nL of cRNA at a concentration of 1 ng/nL using a microinjector (Drummond Scientific, Broomall, PA, USA). The oocytes were maintained in a ND96 solution (in mM: 96 NaCl, 2 KCl, 1.8 CaCl2, 2 MgCl2 and 5 HEPES; adjusted pH 7.4), supplemented with 50 µg/mL gentamicin sulfate.
(§2) Two-electrode voltage-clamp recordings were performed at room temperature (18–22 °C) using a Geneclamp 500 amplifier (Molecular Devices, Sunnyvale, CA, USA) controlled by a pClamp data acquisition system (Axon Instruments, Union City, CA, USA). Whole-cell currents from oocytes were recorded from 1 to 3 days after injection. Bath solution was the same ND96 solution described above. Voltage and current electrodes were filled with 3 M KCl. Resistances of both electrodes were kept between 0.8 and 1.0 ΩM. The elicited currents were filtered at 500 Hz using a four-pole lowpass Bessel filter. Leak subtraction was performed using a −P/4 protocol. KV1.1–KV1.6 and Shaker IR currents were evoked by 500 ms depolarizations to 0 mV, followed by a 500 ms pulse to −50 mV, from a holding potential of −90 mV. Current traces of hERG channels were elicited by applying a +40 mV prepulse for 2 s, followed by a step to −120 mV for 2 s. KV3.1, KV 4.2 and KV4.3 currents were elicited by 500 ms pulses to +20 mV from a holding potential of −90 mV. To assess the concentration-response relationships, data were fitted with the Hill equation: y = 100/[1 + (EC50/[toxin])h] (1) where y is the amplitude of the toxin-induced effect, EC50 is the toxin concentration at half maximal efficacy, [toxin] is the toxin concentration and h is the Hill coefficient. In order to investigate the current-voltage relationship, current traces were evoked by 10 mV depolarization steps from a holding potential of −90 mV. The activation curves were fitted with a Boltzmann relationship of the form: 1/(1 + e^[−(V − V^1/2)/^S^]) (2) where V1/2 is the voltage for half-maximal activation and s is the slope factor. The activation kinetics were obtained by mono-exponential fits to the raw current traces.

[2] = target: T1, hKV1.3 (Homo sapiens, UniProt P22001); test: Two-electrode voltage-clamp, X. laevis oocytes expressing hKV1.3; format: cell-based; design: expressed in transfected cells; host or cells: Xenopus laevis oocytes injected with cRNA
T1 sequence (P22001 whole entry): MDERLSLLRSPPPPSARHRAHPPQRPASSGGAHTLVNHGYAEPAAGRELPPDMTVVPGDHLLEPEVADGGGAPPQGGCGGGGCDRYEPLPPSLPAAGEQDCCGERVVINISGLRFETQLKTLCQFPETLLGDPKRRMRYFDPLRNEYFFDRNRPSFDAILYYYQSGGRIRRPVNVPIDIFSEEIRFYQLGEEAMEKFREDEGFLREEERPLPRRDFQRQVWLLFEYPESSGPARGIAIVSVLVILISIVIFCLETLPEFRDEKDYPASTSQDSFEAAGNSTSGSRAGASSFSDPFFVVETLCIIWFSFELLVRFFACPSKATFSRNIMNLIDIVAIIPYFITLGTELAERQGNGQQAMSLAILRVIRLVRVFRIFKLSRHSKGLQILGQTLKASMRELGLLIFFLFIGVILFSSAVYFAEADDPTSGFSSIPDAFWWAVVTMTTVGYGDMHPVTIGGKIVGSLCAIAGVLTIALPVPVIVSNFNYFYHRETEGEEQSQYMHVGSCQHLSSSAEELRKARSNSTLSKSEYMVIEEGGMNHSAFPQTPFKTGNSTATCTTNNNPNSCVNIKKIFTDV
Procedure: as §1
as §2, with “The activation curves were fitted with a Boltzmann relationship of the form: 1/(1 + e^[−(V − V^1/2)/^S^]) (2) where V1/2 is the voltage for half-maximal activation and s is the slope factor. The activation kinetics were obtained by mono-exponential fits to the raw current traces.” left out
(§3) Comparison of two sample means was made using a paired Student’s t test (p < 0.05). […] All data were analyzed using Clampfit 10.3 (Molecular Devices, Sunnyvale, CA, USA) and Origin 7.5 software (Origin Lab., Northampton, MA, USA).

[3] = target: T2, rKV1.6 (Rattus norvegicus, UniProt P17659); test: Two-electrode voltage-clamp, X. laevis oocytes expressing rKV1.6; format: cell-based; conditions: mean ± standard error
T2 construct: expressed in transfected cells; host or cells: Xenopus laevis oocytes injected with cRNA
T2 sequence (P17659 whole entry): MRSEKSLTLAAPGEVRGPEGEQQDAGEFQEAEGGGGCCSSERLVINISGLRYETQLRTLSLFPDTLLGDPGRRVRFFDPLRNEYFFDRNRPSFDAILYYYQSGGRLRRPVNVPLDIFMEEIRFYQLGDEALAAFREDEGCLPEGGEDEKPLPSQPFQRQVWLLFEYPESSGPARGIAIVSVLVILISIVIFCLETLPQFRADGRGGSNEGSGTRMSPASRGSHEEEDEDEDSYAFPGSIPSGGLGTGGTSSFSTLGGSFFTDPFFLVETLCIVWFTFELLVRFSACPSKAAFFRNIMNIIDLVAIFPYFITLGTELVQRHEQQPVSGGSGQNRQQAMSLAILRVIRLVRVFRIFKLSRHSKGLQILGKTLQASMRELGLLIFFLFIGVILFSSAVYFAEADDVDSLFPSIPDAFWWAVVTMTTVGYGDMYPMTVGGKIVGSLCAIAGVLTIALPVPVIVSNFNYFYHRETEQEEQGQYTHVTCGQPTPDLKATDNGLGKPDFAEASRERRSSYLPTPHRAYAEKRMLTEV
Procedure: as §1
as §2, with “The activation curves were fitted with a Boltzmann relationship of the form: 1/(1 + e^[−(V − V^1/2)/^S^]) (2) where V1/2 is the voltage for half-maximal activation and s is the slope factor. The activation kinetics were obtained by mono-exponential fits to the raw current traces.” left out
as §3

[4] = target: T3, rKV1.1 (Rattus norvegicus, UniProt P10499); test: Two-electrode voltage-clamp, X. laevis oocytes expressing rKV1.1; format: cell-based; conditions: mean ± standard error
T3 construct: expressed in transfected cells; host or cells: Xenopus laevis oocytes injected with cRNA
T3 sequence (P10499 whole entry): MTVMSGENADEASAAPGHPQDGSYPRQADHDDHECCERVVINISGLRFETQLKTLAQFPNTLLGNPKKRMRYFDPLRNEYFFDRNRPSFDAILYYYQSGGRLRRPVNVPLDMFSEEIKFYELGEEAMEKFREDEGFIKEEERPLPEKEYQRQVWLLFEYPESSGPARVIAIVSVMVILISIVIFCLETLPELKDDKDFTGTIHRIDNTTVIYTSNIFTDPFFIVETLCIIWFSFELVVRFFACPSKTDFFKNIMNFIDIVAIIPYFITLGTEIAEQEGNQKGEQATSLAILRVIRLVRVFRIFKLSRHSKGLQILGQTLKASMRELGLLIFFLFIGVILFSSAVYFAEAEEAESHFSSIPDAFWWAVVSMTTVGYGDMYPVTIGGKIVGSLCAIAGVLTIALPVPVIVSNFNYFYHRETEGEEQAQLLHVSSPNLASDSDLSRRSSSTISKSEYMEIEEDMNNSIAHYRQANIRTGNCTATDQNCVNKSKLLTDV
Procedure: as §1
as §2, with “The activation curves were fitted with a Boltzmann relationship of the form: 1/(1 + e^[−(V − V^1/2)/^S^]) (2) where V1/2 is the voltage for half-maximal activation and s is the slope factor. The activation kinetics were obtained by mono-exponential fits to the raw current traces.” left out
as §3

[5] = target: T4, Shaker IR (Drosophila melanogaster, UniProt P08510, DEL6-46); test: Two-electrode voltage-clamp, X. laevis oocytes expressing Shaker IR; format: cell-based, insect; conditions: mean ± standard error
T4 construct: expressed in transfected cells; host or cells: Xenopus laevis oocytes injected with cRNA
T4 sequence (P08510 with tags, fused parts or gaps DEL6-46): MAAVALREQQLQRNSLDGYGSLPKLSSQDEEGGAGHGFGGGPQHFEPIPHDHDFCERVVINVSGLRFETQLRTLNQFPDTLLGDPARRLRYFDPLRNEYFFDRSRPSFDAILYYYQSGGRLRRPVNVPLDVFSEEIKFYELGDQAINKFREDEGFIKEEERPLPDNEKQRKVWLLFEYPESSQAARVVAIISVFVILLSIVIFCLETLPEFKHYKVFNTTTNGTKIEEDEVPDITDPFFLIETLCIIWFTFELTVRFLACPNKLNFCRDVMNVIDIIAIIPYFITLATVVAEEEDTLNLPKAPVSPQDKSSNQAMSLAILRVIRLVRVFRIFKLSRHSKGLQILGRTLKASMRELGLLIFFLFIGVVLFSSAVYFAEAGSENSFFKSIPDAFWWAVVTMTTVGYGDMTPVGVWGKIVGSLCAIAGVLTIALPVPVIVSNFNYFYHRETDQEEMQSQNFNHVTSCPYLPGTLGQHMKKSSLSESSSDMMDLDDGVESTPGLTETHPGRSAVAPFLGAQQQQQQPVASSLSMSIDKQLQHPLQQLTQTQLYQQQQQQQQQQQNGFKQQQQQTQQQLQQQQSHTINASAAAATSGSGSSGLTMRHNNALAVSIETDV
Procedure: as §1
as §2, with “The activation curves were fitted with a Boltzmann relationship of the form: 1/(1 + e^[−(V − V^1/2)/^S^]) (2) where V1/2 is the voltage for half-maximal activation and s is the slope factor. The activation kinetics were obtained by mono-exponential fits to the raw current traces.” left out
as §3

[6] = target: T5, rKV1.2 (Rattus norvegicus, UniProt P63142); test: Two-electrode voltage-clamp, X. laevis oocytes expressing rKV1.2; format: cell-based
T5 construct: expressed in transfected cells; host or cells: Xenopus laevis oocytes injected with cRNA
T5 sequence (P63142 whole entry): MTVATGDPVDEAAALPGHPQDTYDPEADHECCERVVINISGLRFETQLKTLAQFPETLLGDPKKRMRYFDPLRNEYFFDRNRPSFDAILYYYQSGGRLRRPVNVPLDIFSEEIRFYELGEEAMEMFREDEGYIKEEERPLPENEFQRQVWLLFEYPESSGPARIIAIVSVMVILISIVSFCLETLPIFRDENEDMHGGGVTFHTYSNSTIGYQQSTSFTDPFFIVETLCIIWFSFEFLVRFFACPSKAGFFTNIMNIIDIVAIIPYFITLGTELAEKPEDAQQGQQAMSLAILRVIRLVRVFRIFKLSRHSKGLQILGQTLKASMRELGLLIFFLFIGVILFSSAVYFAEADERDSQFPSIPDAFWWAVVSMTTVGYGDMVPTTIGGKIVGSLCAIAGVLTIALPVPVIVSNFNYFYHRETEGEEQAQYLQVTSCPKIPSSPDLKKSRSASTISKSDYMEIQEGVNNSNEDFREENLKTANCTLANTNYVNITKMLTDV
Procedure: as §1
as §2, with “The activation curves were fitted with a Boltzmann relationship of the form: 1/(1 + e^[−(V − V^1/2)/^S^]) (2) where V1/2 is the voltage for half-maximal activation and s is the slope factor. The activation kinetics were obtained by mono-exponential fits to the raw current traces.” left out
as §3

[7] = tested on: KV1.2; conditions: expressed in Xenopus oocytes; cited from earlier work
Procedure: The pharmacological profile of BcsTx-1 and -2 were determined on a wide range of twelve KV channels (rKV1.1, rKV1.2, hKV1.3, rKV1.4, rKV1.5, rKV1.6, rKV2.1, rKV3.1, rKV4.2, rKV4.3, hERG and the insect channel Shaker IR; r: rat and h: human). Channels were expressed in X. laevis oocytes, and their currents were recorded by using two-electrode voltage-clamp technique. BcsTx1 (0.5 µM) inh ... || In order to characterize the potency and selectivity profile, concentration-response curves were constructed for BcsTx1. […] A concentration-response curve was also constructed to determine the concentration at which BcsTx2 blocked half of the channels.

[8] = target: rKV1.6 (rat) (UniProt P17659)
rKV1.6 (rat), sequence (P17659 whole entry): as the sequence (P17659 whole entry) above

[9] = target: T1, hKV1.3
[10] = target: rKV1.2 (rat) (UniProt P63142)
rKV1.2 (rat), sequence (P63142 whole entry): as the sequence (P63142 whole entry) above

[11] = target: Shaker IR (insect) (UniProt P08510)
Shaker IR (insect), sequence (P08510 whole entry): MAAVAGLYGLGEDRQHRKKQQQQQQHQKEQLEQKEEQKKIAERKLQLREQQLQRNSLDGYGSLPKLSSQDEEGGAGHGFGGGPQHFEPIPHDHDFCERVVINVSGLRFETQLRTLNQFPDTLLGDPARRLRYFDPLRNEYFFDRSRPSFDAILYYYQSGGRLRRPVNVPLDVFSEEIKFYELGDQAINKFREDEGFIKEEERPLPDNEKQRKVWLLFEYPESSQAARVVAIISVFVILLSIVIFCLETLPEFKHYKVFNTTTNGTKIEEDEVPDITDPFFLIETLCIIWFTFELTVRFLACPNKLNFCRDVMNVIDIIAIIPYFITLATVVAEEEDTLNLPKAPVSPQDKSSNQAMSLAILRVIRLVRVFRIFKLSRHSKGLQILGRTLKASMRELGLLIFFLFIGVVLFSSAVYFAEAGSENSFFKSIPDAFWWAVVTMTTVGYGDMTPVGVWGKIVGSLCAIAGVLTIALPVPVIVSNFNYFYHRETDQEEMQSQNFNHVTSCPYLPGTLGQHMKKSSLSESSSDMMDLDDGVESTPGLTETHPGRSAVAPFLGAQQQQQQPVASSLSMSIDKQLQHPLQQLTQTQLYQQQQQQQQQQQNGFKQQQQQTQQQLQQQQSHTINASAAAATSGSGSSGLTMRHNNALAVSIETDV

[12] = target: rKV1.1 (rat) (UniProt P10499)
rKV1.1 (rat), sequence (P10499 whole entry): as the sequence (P10499 whole entry) above

[13] = target: rKV1.6 (rat) (UniProt P17659); remark: listed apart in the source
[14] = target: T1, hKV1.3; remark: listed apart in the source
[15] = target: rKV1.2 (rat) (UniProt P63142); remark: listed apart in the source
[16] = target: Shaker IR (insect) (UniProt P08510); remark: listed apart in the source
[17] = target: rKV1.1 (rat) (UniProt P10499); remark: listed apart in the source
[18] = TEVC, 18–22 °C, ND96 pH 7.4, 500 ms depolarizations to 0 mV from −90 mV, Hill fit, mean ± standard error, n ≥ 3
[19] = TEVC, 18–22 °C, ND96 pH 7.4, 500 ms depolarizations to 0 mV from −90 mV, Hill fit, n ≥ 3

CC[C@H](C)[C@@H]1NC(=O)[C@@H](NC(=O)[C@H](C)N)CSSC[C@@H](C(=O)N[C@@H](Cc2c[nH]cn2)C(=O)O)NC(=O)[C@H](CC(C)C)NC(=O)CNC(=O)[C@@H]2CSSC[C@@H]3NC(=O)[C@H](CO)NC(=O)CNC(=O)CNC(=O)[C@H](CCCCN)NC(=O)[C@H](CCCCN)NC(=O)[C@H](C(C)C)NC(=O)[C@H](Cc4c[nH]cn4)NC(=O)[C@H](CCCCN)NC(=O)[C@H](CSSC[C@H](NC(=O)[C@H](CC(N)=O)NC(=O)[C@H]([C@@H](C)CC)NC(=O)[C@H](CCCNC(=N)N)NC(=O)[C@H](Cc4ccc(O)cc4)NC(=O)[C@H](CCCCN)NC(=O)[C@H](CCC(N)=O)NC(=O)[C@H](CO)NC(=O)[C@H](CC(N)=O)NC(=O)[C@H](CCCCN)NC3=O)C(=O)N[C@@H](C)C(=O)N[C@@H](CCCCN)C(=O)N[C@@H]([C@@H](C)O)C(=O)N2)NC(=O)[C@H]([C@@H](C)O)NC(=O)CNC(=O)[C@H]([C@@H](C)O)NC(=O)[C@@H]2CCCN2C(=O)[C@H](Cc2ccccc2)NC(=O)[C@H](CCCNC(=N)N)NC(=O)[C@H](CC(=O)O)NC1=O [BcsTx1] (H-ACIDRFPTGTCKHVKKGGSCKNSQKYRINCAKTCGLCH-OH; disulfide 2-37, 11-30, 20-34)
selectivity among KV channels (in words) ([1]; 0.5 µM, 12 KV isoforms): selectively blocks KV1.x channels | potency class on KV channels (in words) ([1]; summary of IC50 values, compared with BgK and type 2 toxins): within the nanomolar range | affinity/potency order among KV channels (in words) ([1]; summary of the electrophysiological characterization): high affinity for rKv1.2 over rKv1.6, hKv1.3, Shaker IR and rKv1.1 | inhibition at 0.5 µM ([2]; 0.5 µM, n ≥ 3, read-out: inhibition of KV1.3 current): 100% | IC50 [2, 18]: 74.1 ± 20.2 nM | inhibition at 0.5 µM ([3]; 0.5 µM, n ≥ 3, read-out: inhibition of rKV1.6 current): 88% | IC50 [3, 19]: 1.31 ± 0.2 nM | inhibition at 0.5 µM ([4]; 0.5 µM, n ≥ 3, read-out: inhibition of rKV1.1 current): 44% | IC50 [4, 19]: 405 ± 20.6 nM | inhibition at 0.5 µM ([5]; 0.5 µM, n ≥ 3, read-out: inhibition of Shaker IR current): 64% | IC50 [5, 19]: 248 ± 96 nM | inhibition at 0.5 µM ([6]; 0.5 µM, n ≥ 3, read-out: inhibition of rKV1.2 current): 100% | IC50 [6, 18]: 0.03 ± 0.006 nM

AsKs: type 1 toxin from Anemonia viridis / Anemonia sulcata (Swiss-Prot Q9TWG1) (ACKDNFAAATCKHVKENKNCGSQKYATNCAKTCGKC; UniProt Q9TWG1 1-36, looked up)
block of KV1.2 current (in words) [7]: blocker of KV1.2 current

BcsTx1 (from UniProt C0HJC2 1-38) (peptide)
percent inhibition of the channel's current by 0.5 µM BcsTx1, two-electrode voltage clamp on X. laevis oocytes [8]: 88% | percent inhibition of the channel's current by 0.5 µM BcsTx1, two-electrode voltage clamp on X. laevis oocytes [9]: 100% | percent inhibition of the channel's current by 0.5 µM BcsTx1, two-electrode voltage clamp on X. laevis oocytes [10]: 100% | percent inhibition of the channel's current by 0.5 µM BcsTx1, two-electrode voltage clamp on X. laevis oocytes [11]: 64% | percent inhibition of the channel's current by 0.5 µM BcsTx1, two-electrode voltage clamp on X. laevis oocytes [12]: 44% | IC50 of block of the channel's K+ current, two-electrode voltage clamp on X. laevis oocytes, concentration-response curve [13]: 1.31 nM | IC50 of block of the channel's K+ current, two-electrode voltage clamp on X. laevis oocytes, concentration-response curve [14]: 74.1 nM | IC50 of block of the channel's K+ current, two-electrode voltage clamp on X. laevis oocytes, concentration-response curve [15]: 0.03 nM | IC50 of block of the channel's K+ current, two-electrode voltage clamp on X. laevis oocytes, concentration-response curve [16]: 248 nM | IC50 of block of the channel's K+ current, two-electrode voltage clamp on X. laevis oocytes, concentration-response curve [17]: 405 nM
